Consider 24 molecules from ChEMBL document CHEMBL5233210, “Pyrazolone structural motif in medicinal chemistry: Retrospect and prospect” (Eur J Med Chem, 2020).

As usually defined, the MIC is the smallest concentration in the dilution series that meets the test's criterion for growth inhibition. For orientation: IC50 means the point on the concentration scale where inhibition reaches its midpoint. For orientation: ED50 means the dose at which the effect has come halfway, by size or by number of responders.

In brackets after ≈: the same amount, converted by molar mass.

For one experiment, the system named is Staphylococcus aureus. In words: Antibacterial activity against Staphylococcus aureus. It is filed as functional.
The next experiment deals with Bacillus subtilis. In words: Antibacterial activity against Bacillus subtilis. It is filed as functional.
For a further experiment, the system named is Aspergillus niger. Description: Antifungal activity against Aspergillus niger. It is filed as functional.
Another experiment deals with MCF7. Description: Cytotoxicity against human MCF7 cells. It is filed as functional, cell-based.
In experiment [1] the test system is Ehrlich. In words: Cytotoxicity against mouse Ehrlich ascites cells assessed as dead cells at 100 ug/ml. It is filed as functional. The following applies: dose 100 µg/ml.
Experiment [2] deals with Ehrlich. Description: Cytotoxicity against mouse Ehrlich ascites cells assessed as dead cells at 500 ug/ml. It is filed as functional. As to conditions: dose 500 µg/ml.
The subject of experiment [3] is Ehrlich. Description: Cytotoxicity against mouse Ehrlich ascites cells assessed as dead cells at 25 ug/ml. It is filed as functional. As to conditions: dose 25 µg/ml.
Experiment [4] relates to Rattus norvegicus. In words: Antiinflammatory activity against rat assessed as inhibition of carrageenan-induced paw edema relative to control. It is filed as functional. The arrangement: concentration or dose not given beside the values.
Experiment [5] in a line: Antioxidant activity assessed as ABTS radical scavenging activity. It is filed as functional.
Experiment [6] in a line: Antioxidant activity assessed as DPPH radical scavenging activity. It is filed as functional.
In the next experiment the test system is Escherichia coli. Description: Antibacterial activity against Escherichia coli. It is filed as functional.
The subject of another experiment is Candida albicans. In words: Antifungal activity against Candida albicans. It is filed as functional.
Another experiment is filed under the species Ovis aries. In words: Selectivity index, ratio of IC50 for ovine COX-1 to IC50 for ovine COX-2.
Experiment [7] deals with Rattus norvegicus. Description: Antiinflammatory activity against rat assessed as inhibition of carrageenan-induced paw edema. It is filed as functional. For orientation: The carrageenan paw model is a standard test of acute inflammation.
A further experiment concerns Pseudomonas aeruginosa. In words: Antibacterial activity against Pseudomonas aeruginosa. It is filed as functional.

`NC1=NNC(=O)C1(CCS(=O)(=O)c1ccccc1)CCS(=O)(=O)c1ccccc1`: the MIC against Staphylococcus aureus, in the experiment with Bacillus subtilis and in the experiment with Aspergillus niger was 100 µg/mL (≈ 230 µM) each time. In the experiment on MCF7, `Cc1c(-n2cc(C#N)c(=O)n(-c3ccc(I)cc3)c2=S)c(=O)n(-c2ccccc2)n1C` came in with an IC50 of 30.7 µM. Regarding `N#Cc1c(N/N=C2/C(=O)NN=C2N)sc2c1CCCC2`, the values for the Activity in the experiment with Ehrlich [1], with Ehrlich [2] and in the experiment with Ehrlich [3] were 100%, 98.6% and 94%, respectively. For the molecule `CC1=NN(c2ccccc2)C(=O)C1c1cc(-c2ccc(N(C)C)cc2)nc(N)n1` (stereo not given), the Activity with Rattus norvegicus [4] is listed as 62%. On to `CC1=NN(c2nc(-c3ccccc3)cs2)C(=O)C1`, for which the Activity in [5] came out at 85.7%. On to `Cc1c(/N=C/c2cc(O)ccc2O)c(=O)n(-c2ccccc2)n1C`, for which the IC50 in experiment [6] was determined as 17.1 µM. Same read-out and setting: the result for `Cc1c(/N=C/c2ccc(O)cc2O)c(=O)n(-c2ccccc2)n1C` reads 20.1 µM. Molecule `Cc1c(-n2cc(C#N)c(=O)n(-c3ccc(S(=O)(=O)c4ccc(-n5c(=O)c(C#N)cn(-c6c(C)n(C)n(-c7ccccc7)c6=O)c5=S)cc4)cc3)c2=S)c(=O)n(-c2ccccc2)n1C` registered an IC50 with MCF7 of 37.2 µM.

On to `COc1cc(-c2cc(C3C(=O)N(c4ccccc4)N=C3C)nc(N)n2)ccc1O` (stereo not given), for which the Activity in the experiment on Rattus norvegicus [4] is given as 61.23%.

`CCOC(=O)c1c(N/N=C2/C(=O)NN=C2C)sc2c1CCCC2`: the values for the Activity in the experiment on Ehrlich [1], in the experiment with Ehrlich [2] and in the experiment with Ehrlich [3] were 79.4%, 71% and 43%, respectively. Regarding `CC1=NN(C(=S)NN)C(=O)/C1=N/Nc1ccc(S(N)(=O)=O)cc1`, the MIC was determined as 125 µg/mL (≈ 352 µM) in the experiment on Escherichia coli, 11.6 µg/mL (≈ 32.6 µM) against Candida albicans and 5.8 µg/mL (≈ 16.3 µM) with Aspergillus niger. As for `CCCCNc1nc2ccccc2n1C1=NN=C(O)C1`, the Activity with Rattus norvegicus [4] is 61%. In addition, in the experiment filed under Ovis aries, the Ratio IC50 was 4.84.

Take `CC1=NNC(=O)/C1=N/Nc1sc2c(c1C#N)CCCC2`: the Activity with Ehrlich [1] was 84%; with Ehrlich [2], 53.3%; with Ehrlich [3], 29.8%. Regarding `CC1=NN(c2ccc([N+](=O)[O-])cc2[N+](=O)[O-])C(=O)C1c1cc(-c2ccc(N(C)C)cc2)nc(N)n1` (stereo not given), the Activity with Rattus norvegicus [4] worked out at 62.05%. The same measure, in the same setting: the result for `COc1ccc(-c2cc(C3C(=O)N(c4ccccc4)N=C3C)nc(N)n2)cc1` (stereo not given) reads 61.02%; that for `COc1cc(-c2cc(C3C(=O)N(c4ccc([N+](=O)[O-])cc4[N+](=O)[O-])N=C3C)nc(N)n2)ccc1O` (stereo not given), 62.51%. Turning to `Cc1c(-n2cc(C#N)c(=O)n(-c3ccccc3)/c2=N\c2ccccc2)c(=O)n(-c2ccccc2)n1C`, the IC50 in the experiment with MCF7 was found to be 45 µM. In turn, `Cc1c(N/C=C2\C(=N)N(c3ccccc3)N=C2N)c(=O)n(-c2ccccc2)n1C` came in with an IC50 in the experiment with MCF7 of 60.7 µM. With `C/C(=N\c1c(C)n(C)n(-c2ccccc2)c1=O)c1cc(O)ccc1O`, the IC50 in [6] is 15.2 µM. As for `O=C1O[C@H]([C@@H](O)CO)C(O)=C1O`, the Activity in experiment [5] was 88.2%. For `Cc1[nH]n(-c2ccccc2)c(=O)c1CNC(=S)Nc1ccccc1`, in the experiment on Rattus norvegicus [4], the Activity turned out to be 91%. Also, the Ratio IC50 in the experiment filed under Ovis aries stood at 400. In the experiment with Rattus norvegicus [7], the ED50 stood at 102 mg/kg.

On to `CCOc1ccc(N/N=C2\C(=O)N(CC(=O)n3[nH]c(N)cc3=O)N=C2C(F)(F)F)cc1`, for which the MIC was determined as 12 µg/mL (≈ 27.4 µM) against Staphylococcus aureus; 11.9 µg/mL (≈ 27.1 µM) in the experiment with Pseudomonas aeruginosa; 26.7 µg/mL (≈ 60.8 µM) with Escherichia coli; 9.08 µg/mL (≈ 20.7 µM) in the experiment with Candida albicans; 6.28 µg/mL (≈ 14.3 µM) against Aspergillus niger. In the case of `CC1=NN(C(=S)NN)C(=O)/C1=N/Nc1ccc(C)cc1`, the MIC in the experiment on Escherichia coli is 125 µg/mL (≈ 431 µM); against Candida albicans, 7.8 µg/mL (≈ 26.9 µM); with Aspergillus niger, 2.9 µg/mL (≈ 9.99 µM). Take `NC(=O)c1c(N/N=C2/C(=O)NN=C2N)sc2c1CCCC2`: the Activity is 98.4% in the experiment on Ehrlich [1], 81% with Ehrlich [2] and 65% in the experiment on Ehrlich [3].
